Reference: patent US20260199482A1, “BILE ACID-METRONIDAZOLE CONJUGATE AND USE THEREOF” (SOUTH CHINA UNIVERSITY OF TECHNOLOGY, priority 2022, published 2026)
Values after ≈ are worked out from the molar mass of the structure shown. Like-named read-outs stand apart in the source and are kept apart here.

What was measured:
[1] = test system: Porphyromonas gingivalis ATCC 33277; test: MIC determination using broth microdilution method, anaerobic bacteria; type: cell-based
Procedure: S5, Culture of Porphyromonas gingivalis strain: • the strain stored at −80° C. was resuscitated in the anaerobic glove box with a Colombian blood agar plate, and statically cultured at 37° C. in the constant-temperature incubator for 5-7 days.
(§1) The culture process of the strain was operated in the anaerobic glove box. After the operation was completed, the strain was well sealed with an anaerobic bag or an anaerobic box, taken out and then cultured in the constant-temperature incubator.

[2] = test system: Bacteroides fragilis ATCC 25285; test: as above; type: cell-based
Procedure: as §1

[3] = test system: Clostridioides difficile ATCC 43255; test: as above; type: cell-based; settings: for MIC: ATCC43255, Clostridioides difficile ATCC 43255, broth microdilution, anaerobic, 37° C., 48 h; for inhibitory effect on Clostridioides difficile (ATCC 43255), in words: comment on Table 1
Procedure: 0.10 g of sterile cycloserine and 3.20 mg of sterile cefoxitin (filtered by a filter membrane and sterilized) were added to every 200 mL, mixed well, and poured into a sterile petri dish for later use.
S3, culture of Clostridioides difficile strain: 1) the strain stored at −80° C. was resuscitated in an anaerobic glove box with a cycloserine-cefoxitin-fructose agar medium plate, and statically cultured at 37° C. in a constant-temperature incubator for 48 h; • 2) single colonies were picked, and statically cultured in the brain heart infusion broth medium overnight at 37° C. in the constant-temperature incubator; and • 3) the bacterial solution that was statically cultured overnight was transferred into the anaerobic glove box with the brain heart infusion broth medium at a ratio of 1:100, and cultured for 3-4 h until the OD600 was between 0.6 and 0.8; and during this process, 5 g/L of yeast extract solution was added to increase a strain concentration.
as §1

H. pylori ATCC 43504 = test: MIC determination using broth microdilution method, Helicobacter pylori; type: cell-based; settings: for MIC: Helicobacter pylori, ATCC43504; for inhibitory activity against drug-resistant bacteria, in words: metronidazole-resistant H. pylori ATCC 43504, versus metronidazole
Procedure: (§2) • 1) A frozen solution stored at −80° C. was taken out, and thawed at room temperature; 100 μL of bacterial solution was taken with a pipette, coated onto a Columbia blood agar plate (finished-product medium), put invertedly in a […] culture box, placed in a micro-aerobic gas production bag to achieve a micro-aerobic environment, and cultured at 37° C. for 2-3 days. • 2) A sterile inoculation ring was used to pick Helicobacter pylori single colonies (transparent water droplets) grown on the Colombian blood agar medium and inoculated in the above liquid medium; and cultured at 37° C. in a micro-aerobic environment for 3 days. • 3) A required concentration (absorbance) for the experiment was reached after culture, and the bacterial solution was taken for subsequent experiments.
(§3) The drug concentration at which bacteria ceased to grow or grew at the most significant reduction level was referred to as the MIC value.

H. pylori NCTC 11637 = test: as above; type: cell-based; settings: for MIC: Helicobacter pylori, NCTC11637; for inhibitory activity against drug-resistant bacteria, in words: metronidazole-resistant H. pylori NCTC 11637, versus metronidazole
Procedure: as §2, §3

H. pylori ATCC 26695 = test: as above; type: cell-based
Procedure: as §2, §3

[4] = test system: H. pylori Sydney strain SS1; test: as above; type: cell-based
Procedure: as §2, §3

[5] = test system: Clostridioides difficile infection (spores, 027 Type); test: Clostridioides difficile infection (CDI) mouse model; type: in vivo, C57BL/6 mice; settings: for number of surviving mice: 10 animals per group
Excerpt: • 1) Experimental animals: C57BL/6, 4-6 weeks old, female.
In order to evaluate the efficacy of the compounds of the present application on Clostridioides difficile infection, an animal model of Clostridioides difficile infection was established, as shown in FIG. 1. […] On Day 0, the mice were administrated with 10^5 CFU/mL of spores by gavage; and on Days 1 and 2, the mice were administrated with 10^6 CFU/mL of spores by gavage. Starting from Day 3, the mice were given 7 days of drug treatment, and all mice were euthanized at the end of the experiment, except for the death of mice during the treatment.
Two of the conjugates, SCUT1-2 and SCUT1-6, with the optional in-vitro inhibitory activities were selected. […] The therapeutic effect of the conjugate of the present application in the treatment of Clostridioides difficile infection was evaluated.

[6] = ATCC33277, Porphyromonas gingivalis ATCC 33277, broth microdilution, anaerobic, 37° C., 48 h, read-out: MIC
[7] = ATCC25285, Bacteroides fragilis ATCC 25285, broth microdilution, anaerobic, 37° C., 48 h, read-out: MIC
[8] = H. pylori ATCC 43504(R), metronidazole-resistant strain, read-out: MIC
[9] = H. pylori NCTC 11637(R), metronidazole-resistant strain, read-out: MIC
[10] = ATCC26695, H. pylori ATCC 26695(S), metronidazole-susceptible strain, read-out: MIC
[11] = H. pylori Sydney strain SS1, read-out: MIC
[12] = Day 3 (before the administration), 50 mg/kg groups

Row | SMILES | MIC [1, 6] | MIC [2, 7] | MIC [3] | inhibitory effect on Clostridioides difficile (ATCC 43255), in words [3] | MIC (H. pylori ATCC 43504; [8]) | MIC (H. pylori NCTC 11637; [9]) | MIC (H. pylori ATCC 26695; [10]) | MIC [4, 11] | other results
1 | C[C@H](CCC(=O)O)[C@H]1CC[C@H]2[C@@H]3[C@H](O)C[C@@H]4C[C@H](O)CC[C@]4(C)[C@H]3CC[C@]12C [CDCA, chenodeoxycholic acid, reference compound] | > 32 µg/mL | > 32 µg/mL | 8 µg/mL (≈ 20.4 µM) |  |  |  |  |  | 
2 | C[C@H](CCC(=O)O)[C@H]1CC[C@H]2[C@@H]3[C@H](O)[C@H](O)[C@@H]4C[C@H](O)CC[C@]4(C)[C@H]3CC[C@]12C [HCA, hyocholic acid, reference compound] | > 32 µg/mL | > 32 µg/mL | 32 µg/mL (≈ 78.3 µM) |  |  |  |  |  | 
3 | Cc1ncc([N+](=O)[O-])n1CCOC(=O)CC[C@@H](C)[C@H]1CC[C@H]2[C@@H]3CC[C@@H]4C[C@H](O)CC[C@]4(C)[C@H]3CC[C@]12C [SCUT1-1] |  |  | 0.5 µg/mL (≈ 0.944 µM) |  |  |  |  |  | MIC ([1]; Porphyromonas gingivalis, ATCC33277, 48 h): 2 µg/mL (≈ 3.78 µM); MIC ([2]; Bacteroides fragilis, ATCC25285, 48 h): 1 µg/mL (≈ 1.89 µM); MIC (H. pylori ATCC 43504): > 128 µg/mL; MIC (H. pylori NCTC 11637): 16 µg/mL (≈ 30.2 µM); MIC (H. pylori ATCC 26695; ATCC26695): 8 µg/mL (≈ 15.1 µM); MIC [4]: 8 µg/mL (≈ 15.1 µM)
4 | Cc1ncc([N+](=O)[O-])n1CCOC(=O)CC[C@@H](C)[C@H]1CC[C@H]2[C@@H]3[C@@H](O)C[C@@H]4C[C@H](O)CC[C@]4(C)[C@H]3CC[C@]12C [SCUT1-2] | 0.25 µg/mL (≈ 0.458 µM) | 1 µg/mL (≈ 1.83 µM) | 0.12 µg/mL (≈ 0.22 µM) | particularly prominent | 8 µg/mL (≈ 14.7 µM) | 16 µg/mL (≈ 29.3 µM) | 4 µg/mL (≈ 7.33 µM) | 8 µg/mL (≈ 14.7 µM) | death of mice during the treatment ([5]; 50 mg/kg, 7 days of drug treatment): no mice died; therapeutic effect, in words ([5]; 50 mg/kg, compared with Metronidazole, UDCA and MIX groups): a good therapeutic effect; number of mice with diarrhea [5, 12]: 10 (10) number of mice; number of surviving mice [5, 12]: 10 (10) number of mice; number of mice with diarrhea ([5]; Day 4, 50 mg/kg): 7 number of mice; number of surviving mice ([5]; Day 4, 50 mg/kg): 10 number of mice; number of mice with diarrhea ([5]; Day 5, 50 mg/kg): 4 number of mice; number of surviving mice ([5]; Day 5, 50 mg/kg): 10 number of mice; number of mice with diarrhea ([5]; Day 6, 50 mg/kg): 2 number of mice; number of surviving mice ([5]; Day 6, 50 mg/kg): 10 number of mice; number of mice with diarrhea ([5]; Day 7, 50 mg/kg): 1 number of mice; number of surviving mice ([5]; Day 7, 50 mg/kg): 10 number of mice; number of mice with diarrhea ([5]; Day 8, 50 mg/kg): 1 number of mice; number of surviving mice ([5]; Day 8, 50 mg/kg): 10 number of mice; number of mice with diarrhea ([5]; Day 9, 50 mg/kg): 1 number of mice; number of surviving mice ([5]; Day 9, 50 mg/kg): 10 number of mice; diarrhea rate ([5]; at the endpoint of treatment, 50 mg/kg, Model group 100%): 10%
5 | Cc1ncc([N+](=O)[O-])n1CCOC(=O)CC[C@@H](C)[C@H]1CC[C@H]2[C@@H]3[C@H](O)C[C@@H]4C[C@H](O)CC[C@]4(C)[C@H]3CC[C@]12C [SCUT1-3] | 0.5 µg/mL (≈ 0.916 µM) | 4 µg/mL (≈ 7.33 µM) | 0.12 µg/mL (≈ 0.22 µM) | particularly prominent | 4 µg/mL (≈ 7.33 µM) | 8 µg/mL (≈ 14.7 µM) | 4 µg/mL (≈ 7.33 µM) | 8 µg/mL (≈ 14.7 µM) | inhibitory activity against drug-resistant bacteria, in words (H. pylori ATCC 43504): significantly promoted; inhibitory activity against drug-resistant bacteria, in words (H. pylori NCTC 11637): significantly promoted
6 | Cc1ncc([N+](=O)[O-])n1CCOC(=O)CC[C@@H](C)[C@H]1CC[C@H]2[C@@H]3[C@H](O)C[C@H]4C[C@H](O)CC[C@]4(C)[C@H]3CC[C@]12C [SCUT1-4] | 0.5 µg/mL (≈ 0.916 µM) | 2 µg/mL (≈ 3.66 µM) | 2 µg/mL (≈ 3.66 µM) |  | 4 µg/mL (≈ 7.33 µM) | 4 µg/mL (≈ 7.33 µM) | 4 µg/mL (≈ 7.33 µM) | 4 µg/mL (≈ 7.33 µM) | inhibitory activity against drug-resistant bacteria, in words (H. pylori ATCC 43504): significantly promoted; inhibitory activity against drug-resistant bacteria, in words (H. pylori NCTC 11637): significantly promoted
7 | Cc1ncc([N+](=O)[O-])n1CCOC(=O)CC[C@@H](C)[C@H]1CC[C@H]2[C@@H]3C[C@H](O)[C@@H]4C[C@H](O)CC[C@]4(C)[C@H]3CC[C@]12C [SCUT1-5] | 2 µg/mL (≈ 3.66 µM) | 2 µg/mL (≈ 3.66 µM) | 0.25 µg/mL (≈ 0.458 µM) |  | 4 µg/mL (≈ 7.33 µM) | 32 µg/mL (≈ 58.6 µM) | 8 µg/mL (≈ 14.7 µM) | 16 µg/mL (≈ 29.3 µM) | 
8 | Cc1ncc([N+](=O)[O-])n1CCOC(=O)CC[C@@H](C)[C@H]1CC[C@H]2[C@@H]3[C@H](O)[C@H](O)[C@@H]4C[C@H](O)CC[C@]4(C)[C@H]3CC[C@]12C [SCUT1-6] | 0.25 µg/mL (≈ 0.445 µM) | 2 µg/mL (≈ 3.56 µM) | 0.06 µg/mL (≈ 0.107 µM) | particularly prominent | 8 µg/mL (≈ 14.2 µM) | 8 µg/mL (≈ 14.2 µM) | 4 µg/mL (≈ 7.12 µM) | 16 µg/mL (≈ 28.5 µM) | promotion of inhibitory activity against Clostridioides difficile relative to metronidazole ([3]; at the same dosage, versus metronidazole): more than 50 times; number of mice with diarrhea [5, 12]: 8 number of mice; number of surviving mice [5, 12]: 10 number of mice; number of mice with diarrhea ([5]; Day 4, 50 mg/kg): 10 (10) number of mice; number of surviving mice ([5]; Day 4, 50 mg/kg): 10 (10) number of mice; number of mice with diarrhea ([5]; Day 5, 50 mg/kg): 8 number of mice; number of surviving mice ([5]; Day 5, 50 mg/kg): 10 number of mice; number of mice with diarrhea ([5]; Day 6, 50 mg/kg): 7 number of mice; number of surviving mice ([5]; Day 6, 50 mg/kg): 10 number of mice; number of mice with diarrhea ([5]; Day 7, 50 mg/kg): 5 number of mice; number of surviving mice ([5]; Day 7, 50 mg/kg): 10 number of mice; number of mice with diarrhea ([5]; Day 8, 50 mg/kg): 6 number of mice; number of surviving mice ([5]; Day 8, 50 mg/kg): 10 number of mice; number of mice with diarrhea ([5]; Day 9, 50 mg/kg): 5 number of mice; number of surviving mice ([5]; Day 9, 50 mg/kg): 10 number of mice; changes in mouse body weights ([5]; during drug treatment from Day 3, 50 mg/kg): continued to decrease until the third day of drug treatment (Day 5)
9 | Cc1ncc([N+](=O)[O-])n1CCOC(=O)CC[C@@H](C)[C@H]1CC[C@H]2[C@@H]3C(=O)C[C@@H]4C[C@H](O)CC[C@]4(C)[C@H]3C[C@H](O)[C@]12C [SCUT1-8] | 1 µg/mL (≈ 1.79 µM) | 1 µg/mL (≈ 1.79 µM) | 1 µg/mL (≈ 1.79 µM) |  | 16 µg/mL (≈ 28.6 µM) | 64 µg/mL (≈ 114 µM) | 8 µg/mL (≈ 14.3 µM) | 8 µg/mL (≈ 14.3 µM) | 
